Results from patent US11319306B2, “Compositions and methods for treating neurodegenerative diseases” (Azevan Pharmaceuticals, Inc., priority 2014, dated 2022).

Molecular target: T1, human V1a receptor (Homo sapiens, UniProt P37288)
T1 construct: host or cells: CHO cells (hV1a cell line)
Assay: Human vasopressin V1a receptor binding assay (3H-AVP competition, hV1a CHO cells)
Conditions: 3H-AVP competition, CHO cells expressing human V1a; for Ki: read-out: V1a Ki; for IC50: read-out: V1a Binding Affinity IC50
Method: Human vasopression V1a receptor binding assay. A cell line expressing the human V1a receptor in CHO cells (henceforth referred to as the hV1a cell line) was obtained from Dr. Michael Brownstein, NIMH, Bethesda, Md., USA. The hV1a cDNA sequence is described by Thibonnier et al., Journal of Biological Chemistry, 269, 3304-3310 (1994), and the expression method was the same as described by Morel et al. (1992). The hV1a cell line was grown in alpha-MEM with 10% fetal bovine serum and 250 ug/ml G418 (Gibco, Grand Island, N.Y., USA). For competitive binding assay, hV1a cells were plated into 6-well culture plate at 1:10 dilution from a confluency flask, and maintained in culture for at least two days. Culture medium was then removed, cells were washed with 2 ml binding buffer (25 mM Hepes, 0.25% BSA, 1×DMEM, PH=7.0). To each well, 990 μl binding buffer containing InM 3H-AVP was added, and followed by 10 μl series diluted Example compounds dissolved in DMSO. […] 100 nM cold AVP (Sigma) was used to assess non-specific binding. Cells were incubated for 45 minutes at 37° C., assay mixture was removed and each well was washed three times with PBS (pH=7.4). 1 ml 2% SDS was added per well and plates were let sit for 30 minutes. The whole content in a well was transferred to a scintillation vial. Each well was rinsed with 0.5 ml PBS which was then added to the corresponding vial. Scintillation fluid (Ecoscint, National Diagnostics, Atlanta, Ga.) was then added at 3 ml per vial. Samples were counted in a liquid scintillation counter (Beckman LS3801). IC50 values were calculated by Prism Curve fitting software.
All of the alkanedioic esters and amides exemplified in the foregoing examples dissolved in DMSO were tested in this assay. Binding curves were generated according to methods described by Thibonnier et al. (1994). [^3H]-AVP was added to the hV1a cell cultures followed by 10-fold dilutions of each test compound.

T1 sequence (P37288 whole entry): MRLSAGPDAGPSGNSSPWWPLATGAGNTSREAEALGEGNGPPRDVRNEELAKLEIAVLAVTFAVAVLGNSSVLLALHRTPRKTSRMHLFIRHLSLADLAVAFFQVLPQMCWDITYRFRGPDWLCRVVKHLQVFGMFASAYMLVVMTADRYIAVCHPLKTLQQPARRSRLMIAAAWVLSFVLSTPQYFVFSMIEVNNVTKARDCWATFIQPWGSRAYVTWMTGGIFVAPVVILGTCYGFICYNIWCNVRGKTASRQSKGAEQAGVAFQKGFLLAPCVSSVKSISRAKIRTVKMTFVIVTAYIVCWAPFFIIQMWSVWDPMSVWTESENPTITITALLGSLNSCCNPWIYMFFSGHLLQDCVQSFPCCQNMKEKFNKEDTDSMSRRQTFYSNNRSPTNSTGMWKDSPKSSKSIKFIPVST

Compound	Ki	IC50
O=C(NC1(c2cccc(F)c2)CCCC1)C(CCC(=O)N1CCN(C2CCCCC2)CC1)N1C(=O)C(N2C(=O)OCC2c2ccccc2)C1C=Cc1ccccc1 (stereo not drawn) [Example 221AM]	2.7 nM	–
CC(C)(C)OC(=O)NC1CCN(C2CCN(C(=O)CCC(C(=O)NC3(c4ccccc4)CCCC3)N3C(=O)C(N4C(=O)OCC4c4ccccc4)C3C=Cc3ccccc3)CC2)C1 (stereo not drawn) [Example 221AX]	51 nM	83 nM
Cc1cccc(CN(C)C(=O)C(CCC(=O)N2CCN(C3CCCCC3)CC2)N2C(=O)C(N3C(=O)OCC3c3ccccc3)C2C=Cc2ccccc2)c1 (stereo not drawn) [Example 221A]	1.66 nM	2.71 nM
CCN1CCN(C(=O)CCC(C(=O)NC2CCCc3ccccc32)N2C(=O)C(N3C(=O)OCC3c3ccccc3)C2C=Cc2ccccc2)CC1 (stereo not drawn) [Example 221BD]	1.66 nM	2.7 nM
O=C(NC1CCCc2ccccc21)C(CCC(=O)N1CCN(CCCO)CC1)N1C(=O)C(N2C(=O)OCC2c2ccccc2)C1C=Cc1ccccc1 (stereo not drawn) [Example 221BI]	35 nM	56 nM
CN(Cc1cccc(Cl)c1Cl)C(=O)C(CCC(=O)N1CCN(C2CCCCC2)CC1)N1C(=O)C(N2C(=O)OCC2c2ccccc2)C1C=Cc1ccccc1 (stereo not drawn) [Example 221B]	0.36 nM	0.59 nM
CN(Cc1cccc(Cl)c1)C(=O)C(CCC(=O)N1CCN(C2CCCCC2)CC1)N1C(=O)C(N2C(=O)OCC2c2ccccc2)C1C=Cc1ccccc1 (stereo not drawn) [Example 221C]	1.84 nM	3 nM
CN(Cc1cccc(Br)c1)C(=O)C(CCC(=O)N1CCN(C2CCCCC2)CC1)N1C(=O)C(N2C(=O)OCC2c2ccccc2)C1C=Cc1ccccc1 (stereo not drawn) [Example 221D]	1.48 nM	2.41 nM
CN(Cc1cc(Cl)cc(Cl)c1)C(=O)C(CCC(=O)N1CCN(C2CCCCC2)CC1)N1C(=O)C(N2C(=O)OCC2c2ccccc2)C1C=Cc1ccccc1 (stereo not drawn) [Example 221E]	12.4 nM	20.2 nM
C[C@@H](NC(=O)[C@H](CCC(=O)N1CCN(C2CCCCC2)CC1)N1C(=O)[C@@H](N2C(=O)OC[C@@H]2c2ccccc2)[C@H]1/C=C/c1ccccc1)c1cccc(C(F)(F)F)c1 [Example 221F]	1.04 nM	1.7 nM
O=C(NC1(c2ccccc2)CCCCC1)C(CCC(=O)N1CCN(C2CCCCC2)CC1)N1C(=O)C(N2C(=O)OCC2c2ccccc2)C1C=Cc1ccccc1 (stereo not drawn) [Example 221G]	0.93 nM	1.5 nM
O=C(NC1(c2ccccc2F)CCCC1)C(CCC(=O)N1CCN(C2CCCCC2)CC1)N1C(=O)C(N2C(=O)OCC2c2ccccc2)C1C=Cc1ccccc1 (stereo not drawn) [Example 221H]	2.5 nM	4 nM
O=C(NC1(c2ccc(F)cc2)CCCC1)C(CCC(=O)N1CCN(C2CCCCC2)CC1)N1C(=O)C(N2C(=O)OCC2c2ccccc2)C1C=Cc1ccccc1 (stereo not drawn) [Example 221I]	7.4 nM	12 nM
O=C(CCC(C(=O)N1CCc2ccccc2C1)N1C(=O)C(N2C(=O)OCC2c2ccccc2)C1C=Cc1ccccc1)N1CCN(C2CCCCC2)CC1 (stereo not drawn) [Example 221O]	5.1 nM	8.4 nM
O=C(NC(CCO)c1ccccc1)C(CCC(=O)N1CCN(C2CCCCC2)CC1)N1C(=O)C(N2C(=O)OCC2c2ccccc2)C1C=Cc1ccccc1 (stereo not drawn) [Example 221Q]	11.1 nM	18.1 nM
O=C(NC1CCc2ccccc21)C(CCC(=O)N1CCN(C2CCCCC2)CC1)N1C(=O)C(N2C(=O)OCC2c2ccccc2)C1C=Cc1ccccc1 (stereo not drawn) [Example 221S]	3.08 nM	5.03 nM
O=C(CCC(C(=O)NC1CCCc2ccccc21)N1C(=O)C(N2C(=O)OCC2c2ccccc2)C1C=Cc1ccccc1)NCCN1CCCCC1 (stereo not drawn) [Example 221X]	7.2 nM	11.6 nM
O=C(NC1CCCc2ccccc21)C(CCC(=O)N1CCCC1CN1CCCC1)N1C(=O)C(N2C(=O)OCC2c2ccccc2)C1C=Cc1ccccc1 (stereo not drawn) [Example 221Y]	4.7 nM	7.6 nM
O=C(NCc1cccc(C(F)(F)F)c1)C(CCC(=O)N1CCN(C2CCCCC2)CC1)N1C(=O)C(N2C(=O)OCC2c2ccccc2)C1C(Cl)=Cc1ccccc1 (stereo not drawn) [Example 226]	0.3 nM	0.49 nM

Compound	Ki	IC50
CCN1CCN(C(=O)CCC(C(=O)NCc2cccc(C(F)(F)F)c2)N2C(=O)C(N3C(=O)OCC3c3ccccc3)C2C(Cl)=Cc2ccccc2)CC1 (stereo not drawn) [Example 228]	8.35 nM	13.6 nM
CCCCN1CCN(C(=O)CCC(C(=O)NCc2cccc(C(F)(F)F)c2)N2C(=O)C(N3C(=O)OCC3c3ccccc3)C2C(Cl)=Cc2ccccc2)CC1 (stereo not drawn) [Example 229]	0.94 nM	1.53 nM
CCCCN1CCN(C(=O)CCC(C(=O)NCc2cccc(C(F)(F)F)c2)N2C(=O)C(N3C(=O)OCC3c3ccccc3)C2C(Br)=Cc2ccccc2)CC1 (stereo not drawn) [Example 230L]	7.8 nM	12.7 nM
CC(C)N1CCN(C(=O)CCC(C(=O)NCc2cccc(C(F)(F)F)c2)N2C(=O)C(N3C(=O)OCC3c3ccccc3)C2C(Cl)=Cc2ccccc2)CC1 (stereo not drawn) [Example 230]	4.33 nM	7.07 nM
O=C(C(COCc1ccccc1)N1C(=O)C(N2C(=O)OCC2c2ccccc2)C1C=Cc1ccccc1)N1CCN(C2CCCCC2)CC1 (stereo not drawn) [Example 232D]	1.25 nM	2.04 nM
O=C([C@@H](COCc1ccccc1)N1C(=O)[C@@H](N2C(=O)OC[C@@H]2c2ccccc2)[C@H]1/C=C/c1ccccc1)N1CCC(CN2CCCCC2)CC1 [Example 232E]	0.17 nM	0.28 nM
O=C(C(COCc1ccccc1)N1C(=O)C(N2C(=O)OCC2c2ccccc2)C1C=Cc1ccccc1)N1CCC(N2CCCCC2)CC1 (stereo not drawn) [Example 232]	0.84 nM	1.37 nM
O=C(C(COCc1ccccc1)N1C(=O)C(N2C(=O)OCC2c2ccccc2)C1C=Cc1ccccc1)N1CCC(CCN2CCCCC2)CC1 (stereo not drawn) [Example 233]	0.34 nM	0.56 nM
O=C([C@@H](CSCc1ccccc1)N1C(=O)[C@@H](N2C(=O)OC[C@@H]2c2ccccc2)[C@H]1/C=C/c1ccccc1)N1CCC(CCN2CCCCC2)CC1 [Example 238, (2S)-(Benzylthiomethyl)-2-[3(S)-(4(S)-phenyloxazolidin-2-on-3-yl)-4(R)-(2-styryl)azetidin-2-on-1-yl]acetic acid N-[4-[2-(piperid-1-yl)ethyl]piperidin-1-yl]amide]	0.07 nM	0.11 nM
CCN1CCN(C(=O)CC[C@@H](C(=O)NC2(c3ccccc3)CCCC2)N2C(=O)[C@@H](N3C(=O)OC[C@@H]3c3ccccc3)[C@H]2/C=C/c2ccccc2)CC1 [Example 239]	4 nM	6.6 nM
O=C(NC1(c2ccccc2)CCCC1)[C@H](CCC(=O)N1CCN(Cc2ccccc2)CC1)N1C(=O)[C@@H](N2C(=O)OC[C@@H]2c2ccccc2)[C@H]1/C=C/c1ccccc1 [Example 240]	15.5 nM	25 nM
O=C(N[C@@H]1CCCc2ccccc21)[C@H](CCC(=O)N1CCN(C2CCCC2)CC1)N1C(=O)[C@@H](N2C(=O)OC[C@@H]2c2ccccc2)[C@H]1/C=C/c1ccccc1 [Example 241]	1.24 nM	2 nM
COc1cccc(/C=C/[C@@H]2[C@H](N3C(=O)OC[C@@H]3c3ccccc3)C(=O)N2[C@@H](CCC(=O)N2CCN(C3CCCCC3)CC2)C(=O)N[C@@H]2CCCc3ccccc32)c1 [Example 242]	1.36 nM	2.2 nM
O=C(N[C@@H]1CCCc2ccccc21)[C@H](CCC(=O)N1CCN(C2CCCCC2)CC1)N1C(=O)[C@@H](N2C(=O)OC[C@@H]2c2ccccc2)[C@H]1/C=C/c1cccc(Cl)c1 [Example 243]	0.3 nM	0.5 nM
O=C(NC1(c2ccccc2)CCCC1)[C@H](CCC(=O)N1CCN(C2CCCCC2)CC1)N1C(=O)[C@@H](N2C(=O)OC[C@@H]2c2ccccc2)[C@H]1/C=C/c1cccc(Cl)c1 [Example 244]	2.1 nM	3.4 nM
O=C(N[C@@H]1CCCc2ccccc21)[C@H](CCC(=O)N1CCN(C2CCCCC2)CC1)N1C(=O)[C@@H](N2C(=O)OC[C@@H]2c2ccccc2)[C@H]1/C=C/c1cccc(F)c1 [Example 245]	0.68 nM	1.1 nM
O=C(N[C@@H]1CCCc2ccccc21)[C@H](CCC(=O)N1CCN(C2CCCCC2)CC1)N1C(=O)[C@@H](N2C(=O)OC[C@@H]2c2ccccc2)[C@H]1/C=C/c1cccc(C(F)(F)F)c1 [Example 246]	1.3 nM	2.1 nM
N#Cc1cccc(/C=C/[C@@H]2[C@H](N3C(=O)OC[C@@H]3c3ccccc3)C(=O)N2[C@@H](CCC(=O)N2CCN(C3CCCCC3)CC2)C(=O)N[C@@H]2CCCc3ccccc32)c1 [Example 248]	3.3 nM	5.3 nM
O=C(N[C@@H]1CCCc2ccccc21)[C@H](CCC(=O)N1CCN(C2CCCCC2)CC1)N1C(=O)[C@@H](N2C(=O)OC[C@@H]2c2ccccc2)[C@H]1/C=C/c1cccc([N+](=O)[O-])c1 [Example 249]	1 nM	1.7 nM
